Tests used:
[1] = system: phosphorylated TTP/ZFP36; test: Western blotting of TTP/ZFP36 phosphorylation in cells treated with kinase inhibitor volasertib; type: cell-based
Experimental: The cells were lysed in a mixture of 0.5% NP40 buffer, protease inhibitor and phosphatase inhibitor. The calf intestinal alkaline phosphatase (CIP, Promega, Madison, WI, USA) was used to verify the phosphorylation status of TTP/ZFP36, 20 units were added to the cell lysate (per 250 ul). The cell lysates were loaded and subjected to electrophoresis on 4-12% NuPAGE Bis-Tris gel (Invitrogen, Foster City, CA, USA). Then, the proteins were transferred from the gel to nitrocellulose membranes (Hybond ECL; Amersham Biosciences, Piscataway, NJ) in the presence of NuGAGE 20× transfer buffer (Invitrogen, Foster City, CA, USA). After blocking, membranes were incubated with primary antibodies diluted in 5% bovine serum albumin (BSA) (Sigma-Aldrich, St Louis, MO) at 4° C. overnight. For TTP/ZFP36, a custom-made affinity purified TTP polyclonal antibody and against C-terminal end of TTP and was used previously. This antibody is specific to TTP/ZFP36, but not the ortholog: ZFP36L1 when using 0.5% NP40 buffer instead of Laemmli buffer. Other antibodies are: anti-PLK1 (dilution 1:1000, Cell signaling, Massachusetts, USA), anti-GAPDH (dilution 1:500, Abcam, MA, USA), anti-HA, dilution 1:5000, Roche, Upper Bavaria, Germany). Thereafter, the membranes were incubated with corresponding secondary antibodies (diluted in 5% BSA, 1:2000 dilution) (Santa Cruz Biotech, Santa Cruz, CA) for 1-3 hrs. Protein bands were detected using ECL Western blotting detection reagents (Amersham Biosciences, Amersham, UK) in Molecular Imager ChemiDoc machine (BioRad, Hercules, CA, USA).
An exemplary kinase inhibitor, namely volasertib, was tested for the effects on the level of phosphorylation of TTP. […] The maximum dosage tested was 300 nM, and the lowest tested dose was 10 nM and was still effective (FIG. 2A). […] There was no change in the mobility of ZFP36 as observed with CIP treatment, indicating a partial, rather than complete de-phosphorylation event (as with CIP).

[2] = system: MDA-MB-231 xenografts; test: MDA-MB-231 xenograft tumor growth in nude mice; type: in vivo
Experimental: (§1) FIGS. 4A-4B show kinase inhibition in mice and reduction in TTP phosphorylation. • 4A) PLK1 inhibition and tumor size in mice; MDA-MB-231 xenografts were injected into the mammary fat pad of female nude mice; when tumors become palpable, mice were treated with either volasertib (10 mg/kg) or vehicle twice weekly. The tumor size was calculated as described in Methods. Data are Mean±SEM from a nine-mouse experiment as indicated. Two-way ANOVA was performed for overall effect with Sidak's multiple comparison test (*p<0.05, **** p<0.0001). 4B) The effect of volasertib on TTP/ZFP36 phosphorylation; WB of tumor tissues from each mouse as probed with anti-TTP/ZFP36 or GAPDH as the loading control.
Nude mice were purchased from Jackson Laboratories (Bar Harbor, Maine, USA). The mice were housed at the animal facility at King Faisal Specialist Hospital and Research Center (KFSHRC) and maintained in accordance with protocols approved by the institution Animal Care and Use Committee. […] Tumor growth was measured by caliper, and the volume was calculated by the formula (π/6×L×M2), where L and M refer to the large and small diameters of each tumor, respectively. Mice weight and tumor size were recorded weekly. […]

[3] = system: uPA; test: Western blotting of uPA protein (TTP target) after volasertib; type: cell-based; conditions: volasertib 330 nM time course, FIG. 2C
Experimental: The cells were lysed in a mixture of 0.5% NP40 buffer, protease inhibitor and phosphatase inhibitor. The calf intestinal alkaline phosphatase (CIP, Promega, Madison, WI, USA) was used to verify the phosphorylation status of TTP/ZFP36, 20 units were added to the cell lysate (per 250 ul). The cell lysates were loaded and subjected to electrophoresis on 4-12% NuPAGE Bis-Tris gel (Invitrogen, Foster City, CA, USA). Then, the proteins were transferred from the gel to nitrocellulose membranes (Hybond ECL; Amersham Biosciences, Piscataway, NJ) in the presence of NuGAGE 20× transfer buffer (Invitrogen, Foster City, CA, USA). After blocking, membranes were incubated with primary antibodies diluted in 5% bovine serum albumin (BSA) (Sigma-Aldrich, St Louis, MO) at 4° C. overnight. For TTP/ZFP36, a custom-made affinity purified TTP polyclonal antibody and against C-terminal end of TTP and was used previously. This antibody is specific to TTP/ZFP36, but not the ortholog: ZFP36L1 when using 0.5% NP40 buffer instead of Laemmli buffer. Other antibodies are: anti-PLK1 (dilution 1:1000, Cell signaling, Massachusetts, USA), anti-GAPDH (dilution 1:500, Abcam, MA, USA), anti-HA, dilution 1:5000, Roche, Upper Bavaria, Germany). […] Protein bands were detected using ECL Western blotting detection reagents (Amersham Biosciences, Amersham, UK) in Molecular Imager ChemiDoc machine (BioRad, Hercules, CA, USA). […]

[4] = system: phosphorylated TTP/ZFP36; test: Western blotting of phosphorylated TTP/ZFP36 in excised xenograft tumor tissues; design: species or system nude mice; conditions: 10 mg/kg in vivo treatment, Western blot, FIG. 4B
Experimental: as §1
The cells were lysed in a mixture of 0.5% NP40 buffer, protease inhibitor and phosphatase inhibitor. […] Protein bands were detected using ECL Western blotting detection reagents (Amersham Biosciences, Amersham, UK) in Molecular Imager ChemiDoc machine (BioRad, Hercules, CA, USA).
Nude mice were purchased from Jackson Laboratories (Bar Harbor, Maine, USA). […] Tumor growth was measured by caliper, and the volume was calculated by the formula (π/6×L×M2), where L and M refer to the large and small diameters of each tumor, respectively. Mice weight and tumor size were recorded weekly. […]

[5] = system: phosphorylated TTP; test: Phosphorylated TTP level in ERBB2 overexpressing SKBR3 cells treated with ERBB2 inhibitor; type: cell-based; conditions: SKBR3 breast cancer cell line, FIG. 6B
[6] = dose response, 10 nM to 300 nM, Western blot, FIG. 2A
[7] = time course, volasertib 330 nM, FIG. 2B

Structure (SMILES) | lowest tested dose still effective on TTP / phosphorylated TTP abundance ([1]; FIG. 2A) [nM] | change in the mobility of ZFP36 (partial rather than complete de-phosphorylation) ([1]; compared with CIP treatment) | abundance of phosphorylated TTP [1, 6] | abundance of total TTP [1, 6] | time after treatment at which effect on phosphorylated TTP is first observed [1, 7] [h] | time after treatment of maximal effect on phosphorylated TTP [1, 7] [h] | tumor growth versus control group ([2]; 10 mg/kg intraperitoneal twice a week, female nude mice, FIG. 4A upper panel) | difference in tumor volume versus vehicle ([2]; 10 mg/kg twice a week, after 4 weeks of treatment, FIG. 4A lower panel) | abundance of the uPA protein [3] | phosphorylated TTP/ZFP36 levels in excised tumor tissues versus control [4] | levels of phosphorylated TTP [5]
CC[C@@H]1C(=O)N(C)c2cnc(Nc3ccc(C(=O)N[C@H]4CC[C@H](N5CCN(CC6CC6)CC5)CC4)cc3OC)nc2N1C(C)C [volasertib] | 10 | no change | reduced in a dose-dependent manner | reduced in a dose-dependent manner | 2 | 8 | slower growth rate and began to regress by the end of the experiment | statistically significant difference | reduced | markedly reduced | –
CS(=O)(=O)CCNCc1ccc(-c2ccc3ncnc(Nc4ccc(OCc5cccc(F)c5)c(Cl)c4)c3c2)o1 [lapatinib] | – | – | – | – | – | – | – | – | – | – | reduce the levels of phosphorylated TTP
